According to patent US10729668B2, “Ketobutyrate compounds and compositions for treating age-related symptoms and diseases” (The Regents of the University of California, priority 2014, dated 2020):

Columns and labels:
[1] = system: C2C12 Cells; test: Oxygen consumption rate (OCR) in C2C12 cells, Seahorse XF-24; assay type: cell-based, mouse; details: 1 hour treatment
Method: Measurement of oxygen consumption rates (OCR). OCR measurements were made using a Seahorse XF-24 analyzer (Seahorse Bioscience). C2C12 Cells were seeded in Seahorse XF-24 cell culture microplates at 30,000 cells per well in DMEM media supplemented with 10% FBS and 10 mM glucose, and incubated at 37° C. and 5% CO2 overnight. Treatment with α-KB or DMSO (vehicle control) was for 1 hour. Cells were washed in unbuffered DMEM medium (pH 7.4, 10 mM glucose) just before measurements, and maintained in this buffer with indicated concentrations of α-KB. OCR was measured three times under basal conditions and normalized to protein concentration per well.

[2] = biological target: T1, Complex II (Mus musculus, UniProt Q8K2B3+Q9CQA3+Q9CXV1+Q9CZB0); test: Complex II driven coupling assay, isolated liver mitochondria (succinate and rotenone); assay type: biochemical; details: succinate supplemented
T1 construct: Mitochondria were isolated from mouse liver as described earlier; from tissue; host or cells: liver mitochondria of 3-month-old C57BL/6 mice
T1 sequence (Q8K2B3 43-664): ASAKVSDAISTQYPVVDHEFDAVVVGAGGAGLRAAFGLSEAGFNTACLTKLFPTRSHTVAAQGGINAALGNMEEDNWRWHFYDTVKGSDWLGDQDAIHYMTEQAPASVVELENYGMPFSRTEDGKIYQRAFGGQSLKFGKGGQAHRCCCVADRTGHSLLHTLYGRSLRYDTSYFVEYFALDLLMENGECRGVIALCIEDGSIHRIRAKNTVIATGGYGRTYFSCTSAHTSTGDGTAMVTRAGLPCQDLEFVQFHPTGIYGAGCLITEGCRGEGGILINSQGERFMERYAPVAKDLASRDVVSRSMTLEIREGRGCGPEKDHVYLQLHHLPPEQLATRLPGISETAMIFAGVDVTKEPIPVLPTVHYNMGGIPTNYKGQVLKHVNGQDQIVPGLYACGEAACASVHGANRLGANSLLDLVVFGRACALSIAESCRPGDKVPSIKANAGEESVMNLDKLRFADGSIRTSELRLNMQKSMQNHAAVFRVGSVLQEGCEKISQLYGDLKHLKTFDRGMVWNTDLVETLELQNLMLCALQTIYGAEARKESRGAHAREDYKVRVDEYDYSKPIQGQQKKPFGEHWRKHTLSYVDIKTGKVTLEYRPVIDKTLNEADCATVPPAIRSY
T1 sequence (Q9CQA3 31-282): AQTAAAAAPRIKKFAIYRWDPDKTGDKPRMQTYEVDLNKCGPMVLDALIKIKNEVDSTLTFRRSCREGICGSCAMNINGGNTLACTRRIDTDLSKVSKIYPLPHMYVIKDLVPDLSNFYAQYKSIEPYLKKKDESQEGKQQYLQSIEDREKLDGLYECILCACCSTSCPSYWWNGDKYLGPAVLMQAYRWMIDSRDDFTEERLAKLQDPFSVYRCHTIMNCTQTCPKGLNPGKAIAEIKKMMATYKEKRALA
T1 sequence (Q9CZB0 30-169): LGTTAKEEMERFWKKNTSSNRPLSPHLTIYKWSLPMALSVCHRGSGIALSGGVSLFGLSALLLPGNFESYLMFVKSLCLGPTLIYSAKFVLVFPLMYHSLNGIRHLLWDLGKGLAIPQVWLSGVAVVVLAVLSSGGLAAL
T1 sequence (Q9CXV1 57-159): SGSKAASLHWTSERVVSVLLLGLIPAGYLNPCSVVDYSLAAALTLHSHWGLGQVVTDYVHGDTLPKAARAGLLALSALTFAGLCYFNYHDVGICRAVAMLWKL
Method: Animal studies were performed under approved UCLA animal research protocols. Mitochondria from 3-month-old C57BL/6 mice were isolated. Briefly, livers were extracted, minced at 4° C. in MSHE+BSA (70 mM sucrose, 210 mM mannitol, 5 mM HEPES, 1 mM EGTA, and 0.5% fatty acid free BSA, pH 7.2), and rinsed several times to remove blood. All subsequent steps were performed on ice or at 4° C. The tissue was disrupted in 10 volumes of MSHE+BSA with a glass Dounce homogenizer (5-6 strokes) and the homogenate was centrifuged at 800×g for 10 minutes to remove tissue debris and nuclei. The supernatant was decanted through a cell strainer and centrifuged at 8,000×g for 10 minutes. The dark mitochondrial pellet was resuspended in MSHE+BSA and re-centrifuged at 8,000×g for 10 minutes. The final mitochondrial pellet was resuspended in 30 μl of MAS buffer (70 mM sucrose, 220 mM mannitol, 10 mM KH2PO4, 5 mM MgCl2, 2 mM HEPES, 1 mM EGTA, and 0.2% fatty acid free BSA, pH 7.2). Isolated mitochondrial respiration was measured by running coupling and electron flow assays as described. […]
Mitochondrial respiration was measured by running coupling and electron flow assays. […]

[3] = system: NADH dehydrogenase; test: Electron flow assay, isolated liver mitochondria; assay type: biochemical, mouse
Method: Animal studies were performed under approved UCLA animal research protocols. Mitochondria from 3-month-old C57BL/6 mice were isolated. Briefly, livers were extracted, minced at 4° C. in MSHE+BSA (70 mM sucrose, 210 mM mannitol, 5 mM HEPES, 1 mM EGTA, and 0.5% fatty acid free BSA, pH 7.2), and rinsed several times to remove blood. All subsequent steps were performed on ice or at 4° C. The tissue was disrupted in 10 volumes of MSHE+BSA with a glass Dounce homogenizer (5-6 strokes) and the homogenate was centrifuged at 800×g for 10 minutes to remove tissue debris and nuclei. The supernatant was decanted through a cell strainer and centrifuged at 8,000×g for 10 minutes. […] Isolated mitochondrial respiration was measured by running coupling and electron flow assays as described. […] After basal readings, the sequential injections were as follows: 2 μM rotenone (Complex I inhibitor), 10 mM succinate (Complex II substrate), 4 μM antimycin A (Complex III inhibitor), and 10 mM/100 μM ascorbate/tetramethylphenylenediamine (Complex IV substrate). […]

With C[C@@H](O)CC(=O)O [3-HB, (R)-3-hydroxybutyrate, reference compound] the basal respiration [1] was “does not have any effect”, the “maximal respiration (mitochondrial respiration upon FCCP treatment)” value [1] was “does not have any effect” and the “mitochondrial respiration, Complex II-driven coupling” value [2] was “does not affect”. For the same compound, the “respiration in electron flow assay” value [3] was “does not affect”.
